Where a name gives a salt, the structure may show the parent alone. A value given as a limit tells only on which side of the number the result lay.

This is an account of results in patent publication US20260327233A1, “Heteroaryl Compounds as Ligand Directed Degraders of IRAK4” (Celgene Corporation, priority 2023, published 2026).

The target in experiment [1] is T1, IRAK4 (Homo sapiens, UniProt Q9NWZ3).
T1 sequence (Q9NWZ3 1-460): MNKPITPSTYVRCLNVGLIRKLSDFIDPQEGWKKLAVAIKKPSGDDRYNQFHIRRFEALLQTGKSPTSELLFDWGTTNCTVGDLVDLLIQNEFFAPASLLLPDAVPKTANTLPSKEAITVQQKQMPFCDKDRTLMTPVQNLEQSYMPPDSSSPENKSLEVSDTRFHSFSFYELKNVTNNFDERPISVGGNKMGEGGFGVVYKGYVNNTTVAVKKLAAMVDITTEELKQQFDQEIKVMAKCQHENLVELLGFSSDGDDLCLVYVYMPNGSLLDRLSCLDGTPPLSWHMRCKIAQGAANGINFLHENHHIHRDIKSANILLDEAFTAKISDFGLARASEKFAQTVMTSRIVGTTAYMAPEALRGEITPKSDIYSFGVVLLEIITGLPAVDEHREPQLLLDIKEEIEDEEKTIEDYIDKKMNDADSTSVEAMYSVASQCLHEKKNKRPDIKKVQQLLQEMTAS
Nature of the experiment: IRAK4 PhosphoSens Biochemical Assay (BIOCHEM). The settings on record: IRAK4 1 nM; ATP and Sox conjugated peptide substrate AQT0326; pH 7.5; room temperature; 240 minutes. The method, then:
The PhosphoSens® biochemical assay was performed as described by the vendor (AssayQuant Technologies Inc. Marlborough, MA). A 1.25× stock solution of IRAK4 (PV4002, ThermoFisher Scientific, Waltham, MA) and a 5× stock solution of ATP and Sox conjugated peptide substrate, AQT0326 (CSKS-AQT0326B, AssayQuant Technologies), were prepared in 1× kinase reaction buffer consisting of 50 mM HEPES, pH 7.5, 0.01% Brij-35, 0.5 mM EGTA, 20 mM MgCl2 and 1 mM DTT. 10 μL of the ATP and substrate solution mix, for a final concentration of 200 µM ATP and […] peptide substrate, was added to a Corning 3574 384-well, white, non-binding surface microtiter plate containing 0.5 μL of serially diluted test compounds prepared in DMSO. The reactions were started with the addition of 40 μL of the enzyme solution, for a final IRAK4 concentration of 1 nM, and monitored every 71 seconds for 240 minutes at λEX 360/λEM 485 in a BioTek Synergy H4 plate reader (Agilent Technologies, Santa Clara, CA) at room temperature. The initial linear portions of the progress curves were fit according to a linear equation to yield the slopes and converted to % inhibition based on a value of 100% activity for the no inhibitor treated control. IC50 values of each compound were obtained by fitting the % inhibition-compound concentration curves using Dotmatics software (Dotmatics, Bishops Stortford, Hertfordshire, England),

In experiment [2] the target is T1, IRAK4. Put plainly: ALE THP1 HTRF (IRAK4 HTRF in THP1 cell lysate, Cisbio HTRF kit). It counts as cell-based. Set-up: THP1 Homogeneous Time Resolved Fluorescence (ALE THP1 HTRF) Procedure; endogenous in cells; host or cells: THP1. The settings on record: anti-IRAK4 d2 / anti-IRAK4 k antibodies. Here is the method:
Cell culture media was prepared in a tissue culture hood in a sterile environment by adding 10% FBS and 1% Penicillin Streptomycin to 500 mL no phenol red RPMI 1640 media. The media was filtered through a Nalgene Bottle Top Filter and stored at 4° C.
For Homogenous Time Resolved Fluorescence (HTRF) assays, a Cisbio HTRF kit was used, which included: Lysis Buffer #1 4×, Blocking Reagent #3 100×, 20× Antibody 1 (Anti-IRAK4 d2), 20× Antibody 2 (Anti-IRAK4 k), and Detection Buffer.
4× Lysis Buffer was stored at 4° C. For use as 1× Lysis buffer, the 4× solution was diluted with de-ionized water (distilled water, Gibco Cat. #15230279) and 100× Blocking Reagent in a 1:3:0.04 volume ratio.
20× Antibody Solution aliquots were stored at −80° C. and the Detection Buffer was stored at 4° C. For use as a 1× Antibody Solution, the 20× Antibody Solution aliquot was diluted with Detection Buffer in a 1:19 volume ratio.
Cells were lysed at room temperature for 45 min with shaking. A BCA protein assay was performed and normalization was conducted to the desired total protein concentration with 1× lysis buffer. Next, 1× Antibody Solutions were prepared by adding 380 μL Detection Buffer to 20 μL 20× Antibody Solution aliquots and mixing well. 1× Antibody Solutions were combined 1:1 and briefly vortexed. For control wells, 20 μL 1× anti IRAK4-k Antibody Solution was saved. The 384-well plate (ProxiPlate-384 Plus, Perkin Elmer Cat. #6008289) was loaded by adding 4 μL of the mixed Antibody Solution to empty wells using a single channel repeater. Using a multi-channel repeater, 16 μL lysate was added per well, and any bubbles that were formed were popped with 20 μL pipette tips and Kimwipe edges. In column 10, triplicates of each control were prepared. In wells A10, B10, and C10, buffer control was prepared by adding 16 μL Lysis Buffer and 4 μL Detection Buffer. In wells D10, E10, and F10, cryptate control was prepared by adding 16 μL Lysis Buffer, 2 μL Detection Buffer, and 2 μL 1× anti-IRAK4-k Antibody Solution. In wells G10, H10, and 110, a negative control was prepared by adding 16 μL Lysis Buffer and 4 μL mixed Antibody Solution. The plate was sealed with a clear seal and covered with an aluminum lid. The plate was spun down at 800 g for 5 min and incubated in the dark at room temperature overnight. The next day, the plate was spun down at 800 g for 5 min. The samples were analyzed by a plate reader (Envision, PerkinElmer) using the Desnor 384 HTRF program.
(In general: TR-FRET usually uses a lanthanide donor and a delayed reading to cut background.)

A word on the IC50: it is the concentration at which inhibition is half-maximal. Broadly, the EC50 is the concentration that produces a half-maximal response. A high value points to weaker potency. `N#Cc1nn([C@H]2CC[C@H](C(=O)N3CCN(c4ccc5c(c4)C(=O)N(C4CCC(=O)NC4=O)C5=O)CC3)CC2)cc1NC(=O)c1cnn2ccc(N3CCNCC3)nc12` (stereo partly drawn) [Compound P-1, N-(3-cyano-1-((1r,4r)-4-(4-(2-(2,6-dioxopiperidin-3-yl)-1,3-dioxoisoindolin-5-yl)piperazine-1-carbonyl)cyclohexyl)-1H-pyrazol-4-yl)-5-(piperazin-1-yl)pyrazolo[1,5-a]pyrimidine-3-carboxamide hydrochloride]: on IRAK4 [1], the IC50 was determined as 8.6 nM. In addition, on IRAK4 [2], the EC50 was 67 nM and the “ALE THP1 HTRF YMIN” value is reported as 30%.
Consider `N#Cc1nn(C2CCC(C(=O)N3CCN(c4ccc5c(c4)C(=O)N(C4CCC(=O)NC4=O)C5)CC3)CC2)cc1NC(=O)c1cnn2ccc(N3CCNCC3)nc12` (stereo not drawn) [Compound P-2], for which the IC50 on IRAK4 [1] is 15.3 nM. Further, on IRAK4 [2], the EC50 is over 10000 nM and the “ALE THP1 HTRF YMIN” value came to 63%.
For the molecule `N#Cc1nn(C2CCC(C(=O)NC3CCN(c4ccc5c(c4)C(=O)N(C4CCC(=O)NC4=O)C5=O)CC3)CC2)cc1NC(=O)c1cnn2ccc(N3CCNCC3)nc12` (stereo not drawn) [Compound P-3], the IC50 on IRAK4 [1] came to 4.3 nM. Also, on IRAK4 [2], the EC50 is over 10000 nM and the “ALE THP1 HTRF YMIN” value is 54%.
With `N#Cc1nn([C@H]2CC[C@H](C(=O)N3CCN(c4ccc5c(c4)CN(C4CCC(=O)NC4=O)C5=O)CC3)CC2)cc1NC(=O)c1cnn2ccc(N3CCNCC3)nc12` (stereo partly drawn) [Compound P-4], the IC50 at IRAK4 [1] stood at 3.2 nM. Moreover, on IRAK4 [2], the EC50 was over 10000 nM and the “ALE THP1 HTRF YMIN” value is reported as 94%.
As to `N#Cc1nn([C@H]2CC[C@H](C(=O)N3CCN(c4ccc5c(c4)C(=O)N(C4CCC(=O)NC4=O)C5=O)CC3)CC2)cc1NC(=O)c1cnn2ccc(N3CCC[C@@H](N)C3)nc12` (stereo partly drawn) [Compound P-5], the IC50 at IRAK4 [1] came out at 0.5 nM. Moreover, on IRAK4 [2], the EC50 was over 10000 nM and the “ALE THP1 HTRF YMIN” value turned out to be 60%.
On to `N#Cc1nn([C@H]2CC[C@H](CN3CCN(c4ccc5c(c4)C(=O)N(C4CCC(=O)NC4=O)C5=O)CC3)CC2)cc1NC(=O)c1cnn2ccc(N3CCNCC3)nc12` (stereo partly drawn) [Compound P-6, N-[3-Cyano-1-[4-[[4-[2-(2,6-dioxo-3-piperidyl)-1,3-dioxo-isoindolin-5-yl]piperazin-1-yl]methyl]cyclohexyl]pyrazol-4-yl]-5-piperazin-1-yl-pyrazolo[1,5-a]pyrimidine-3-carboxamide dihydrochloride], for which the IC50 on IRAK4 [1] came to 8.1 nM. At IRAK4 [2], the midpoint of the response, the EC50, lay at 2820 nM and the “ALE THP1 HTRF YMIN” value stood at 26%.
For the molecule `N#Cc1nn(C2CCC(C(=O)N3CCN(c4ccc5c(c4)C(=O)N(C4CCC(=O)NC4=O)C5=O)CC3)CC2)cc1NC(=O)c1cnn2ccc(N[C@@H]3CCCC[C@@H]3N)nc12` (stereo partly drawn) [Compound P-7], the half-maximal inhibitory concentration (IC50) on IRAK4 [1] was under 0.5 nM. Moreover, at IRAK4 [2], the EC50 is over 10000 nM and the “ALE THP1 HTRF YMIN” value was 74%.
Consider `N#Cc1nn(C2CCC(C(=O)N3CCN(c4ccc5c(c4)C(=O)N(C4CCC(=O)NC4=O)C5=O)CC3)CC2)cc1NC(=O)c1cnn2ccc(N3C[C@H](N)C[C@@H](F)C3)nc12` (stereo partly drawn) [Compound P-8], for which the IC50 at IRAK4 [1] was under 0.5 nM. Also, at IRAK4 [2], it took 8.9 nM to reach a half-maximal effect (EC50) and the “ALE THP1 HTRF YMIN” value is 33%.
The corresponding values for `N#Cc1nn([C@H]2CC[C@H](CN3CCC(c4ccc5c(c4)C(=O)N(C4CCC(=O)NC4=O)C5)CC3)CC2)cc1NC(=O)c1cnn2ccc(N3CCNCC3)nc12` (stereo partly drawn) [Compound P-9] are 1.4 nM, over 10000 nM and 78%.
The corresponding values for `N#Cc1nn(C2CCC(C(=O)N3CCC(c4ccc5c(c4)C(=O)N(C4CCC(=O)NC4=O)C5)CC3)CC2)cc1NC(=O)c1cnn2ccc(N3CCNCC3)nc12` (stereo not drawn) [Compound P-10] are 1.2 nM, over 10000 nM and 73%.
In the case of `N#Cc1nn([C@H]2CC[C@H](C(=O)N3CCN(c4ccc5c(c4)C(=O)N(C4CCC(=O)NC4=O)C5=O)CC3)CC2)cc1NC(=O)c1cnn2ccc(N3CCC[C@@H](O)C3)nc12` (stereo partly drawn) [Compound P-11], the IC50 at IRAK4 [1] amounted to 0.5 nM. Besides, on IRAK4 [2], the EC50 was over 10000 nM and the “ALE THP1 HTRF YMIN” value came to 74%.
With `N#Cc1nn(C2CCC(C(=O)N3CCC(c4ccc5c(c4)C(=O)N(C4CCC(=O)NC4=O)C5=O)CC3)CC2)cc1NC(=O)c1cnn2ccc(N3CCNCC3)nc12` (stereo not drawn) [Compound P-12], the IC50 on IRAK4 [1] was determined as 0.5 nM. Besides, at IRAK4 [2], the EC50 was determined as 4280 nM and the “ALE THP1 HTRF YMIN” value worked out at 66%.
On to `N[C@@H]1C[C@@H](F)CN(c2ccn3ncc(C(=O)Nc4cn([C@H]5CC[C@H](C(=O)N6CCN(c7ccc8c(c7)C(=O)N(C7CCC(=O)NC7=O)C8=O)CC6)CC5)nc4C(F)(F)F)c3n2)C1` (stereo partly drawn) [Compound P-13, 5-[(3R,5R)-3-Amino-5-fluoro-1-piperidyl]-N-[1-[4-[4-[2-(2,6-dioxo-3-piperidyl)-1,3-dioxo-isoindolin-5-yl]piperazine-1-carbonyl]cyclohexyl]-3-(trifluoromethyl)pyrazol-4-yl]pyrazolo[1,5-a]pyrimidine-3-carboxamide], for which the IC50 on IRAK4 [1] was under 0.5 nM. For the same molecule, on IRAK4 [2], the EC50 turned out to be 8 nM and the “ALE THP1 HTRF YMIN” value is 24%.
Consider `O=C1CCC(N2C(=O)c3ccc(N4CCN(C(=O)[C@H]5CC[C@H](n6cc(NC(=O)c7cnn8ccc(N9CCNCC9)nc78)c(C(F)(F)F)n6)CC5)CC4)cc3C2=O)C(=O)N1` (stereo partly drawn) [Compound P-14], for which, at IRAK4 [1], the IC50 was found to be 1.6 nM. Also, at IRAK4 [2], the EC50 stood at 10000 nM and the “ALE THP1 HTRF YMIN” value came out at 73%.
Turning to `N[C@@H]1C[C@@H](F)CN(c2ccn3ncc(C(=O)Nc4cn([C@H]5CC[C@H](C(=O)N6CCN(c7ccc8c(c7)C(=O)N(C7CCC(=O)NC7=O)C8=O)CC6)CC5)nc4C(F)F)c3n2)C1` (stereo partly drawn) [Compound P-15], on IRAK4 [1], the IC50 is under 0.5 nM. On IRAK4 [2], a half-maximal effect (EC50) was put at 8 nM and the “ALE THP1 HTRF YMIN” value is on record as 18%.
`O=C1CCC(N2C(=O)c3ccc(N4CCN(C(=O)C5CCC(n6cc(NC(=O)c7cnn8ccc(N9CCNCC9)nc78)c(C(F)F)n6)CC5)CC4)cc3C2=O)C(=O)N1` (stereo not drawn) [Compound P-16]: the IC50 on IRAK4 [1] is 0.5 nM. For the same molecule, at IRAK4 [2], the EC50 came out at 13 nM and the “ALE THP1 HTRF YMIN” value came out at 41%.
Consider `N#Cc1nn([C@H]2CC[C@H](CN3CCC(c4ccc5c(c4)C(=O)N(C4CCC(=O)NC4=O)C5=O)CC3)CC2)cc1NC(=O)c1cnn2ccc(N3CCNCC3)nc12` (stereo partly drawn) [Compound P-17], for which the IC50 at IRAK4 [1] was found to be 1.2 nM. In addition, at IRAK4 [2], the EC50 is over 10000 nM and the “ALE THP1 HTRF YMIN” value is over 95%.
